US20070117770A1, “Human ribosomal DNA (rDNA) and ribosomal RNA (rRNA) nucleic acids and uses thereof” (Cylene Pharmaceuticals, Inc., priority 2005, published 2007)

Experiments:
Assay in all cases: Protein kinase inhibition assay
[1] = target: PAK4(h) (Homo sapiens, UniProt O96013); type: biochemical; conditions: read-out: percent residual activity of PAK4(h)
Experimental: (§1) Certain compounds were tested for activity in protein kinase inhibition assays. All substrates were dissolved and diluted to working stocks in de-ionized water, apart from histone H1 (10× working stock in 20 mM MOPS pH 7.0), PDKtide (10× working stock in 50 mM Tris pH 7.0) ATF2 (which is typically stored at a 20× working stock in 50 mM Tris pH 7.5, 150 mM NaCl, 0.1 mM EGTA, 0.03% Brij-35, 50% glycerol, 1 mM benzamidine, 0.2 mM PMSF and 0.1% R-mercaptoethanol), KKLNRTLSFAEPG (SEQ ID NO:203) and RRRLSFAEPG (SEQ ID NO:204) (50 mM HEPES pH 7.4) and GGEEEEYFELVKKKK (SEQ ID NO:205) (20 mM MOPS pH 7.0). All kinases were pre-diluted to a 10× working concentration prior to addition into the assay. The composition of the dilution buffer for each kinase is detailed below.
(§2) In a final reaction volume of 25 μl, PAK4 (h) (5-10 mU) is incubated with 8 mM MOPS pH 7.0, 0.2 mM EDTA, 0.8 mg/ml myelin basic protein, 10 mM MgAcetate and [gamma-33P-ATP] (specific activity approx. 500 cpm/pmol, concentration as required). The reaction is initiated by the addition of the MgATP mix. After incubation for 40 minutes at room temperature, the reaction is stopped by the addition of 5 μl of a 3% phosphoric acid solution. 10 μl of the reaction is then spotted onto a P30 filtermat and washed three times for 5 minutes in 75 mM phosphoric acid and once in methanol prior to drying and scintillation counting.

[2] = test system: AMPK(r); type: biochemical, rat; conditions: 2.5 μM
Experimental: as §1
In a final reaction volume of 25 μl, AMPK (r) (5-10 mU) is incubated with 32 mM HEPES pH 7.4, 0.65 mM DTT, 0.012% Brij-35, 200 μM AMP, 200 μM AMARAASAAALARRR (SEQ ID NO:208), 10 mM MgAcetate and [gamma-33P-ATP] (specific activity approx. 500 cpm/pmol, concentration as required). The reaction is initiated by the addition of the MgATP mix. After incubation for 40 minutes at room temperature, the reaction is stopped by the addition of 5 μl of a 3% phosphoric acid solution. […]

[3] = target: CDK2/cyclinA(h) (Homo sapiens, UniProt P24941); type: biochemical; conditions: read-out: percent residual activity of CDK2/cyclinA(h)
Experimental: as §1
as §2, with “CDK2/cyclinA” for “PAK4”, “0.1” for “0.8”, “histone H1,” for “myelin basic protein,”

[4] = target: TBK1(h) (Homo sapiens, UniProt Q9UHD2); type: biochemical; conditions: read-out: percent residual activity of TBK1(h)
Experimental: as §1
as §2, with “TBK1” for “PAK4”, “200 μM KRRRALS(p)VASLPGL (SEQ ID NO:214),” for “0.8 mg/ml myelin basic protein,”

[5] = target: MAPK2(m) (Mus musculus, UniProt P63085); type: biochemical; conditions: read-out: percent residual activity of MAPK2(m)
Experimental: as §1
as §2, with “μl, MAPK2 (m)” for “μl, PAK4 (h)”, “with 25” for “with 8”, “mM Tris” for “mM MOPS”, “pH 7.5, 0.02” for “pH 7.0, 0.2”, “mM EGTA, 0.33” for “mM EDTA, 0.8”, “10 μpl” for “10 μl”

[6] = target: JNK1α1(h) (Homo sapiens, UniProt P45983); type: biochemical; conditions: read-out: percent residual activity of JNK1α1(h)
Experimental: as §1
as §2, with “JNK1α” for “PAK4”, “50” for “8”, “Tris” for “MOPS”, “7.5, 0.1” for “7.0, 0.2”, “EGTA, 0.1% R-mercaptoethanol, 3 μM ATF2,” for “EDTA, 0.8 mg/ml myelin basic protein,”

Sequence of MAPK2(m) (P63085 whole entry): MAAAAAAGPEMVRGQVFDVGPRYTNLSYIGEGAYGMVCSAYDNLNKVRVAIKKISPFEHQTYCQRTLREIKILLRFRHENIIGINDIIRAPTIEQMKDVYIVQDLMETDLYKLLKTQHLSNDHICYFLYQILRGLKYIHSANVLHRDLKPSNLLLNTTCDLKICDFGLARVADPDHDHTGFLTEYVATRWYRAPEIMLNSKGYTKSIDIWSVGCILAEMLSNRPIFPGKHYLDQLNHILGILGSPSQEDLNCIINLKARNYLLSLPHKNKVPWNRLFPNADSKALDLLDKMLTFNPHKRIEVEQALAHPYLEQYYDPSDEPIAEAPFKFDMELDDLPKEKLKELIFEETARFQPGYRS
Sequence of PAK4(h) (O96013 whole entry): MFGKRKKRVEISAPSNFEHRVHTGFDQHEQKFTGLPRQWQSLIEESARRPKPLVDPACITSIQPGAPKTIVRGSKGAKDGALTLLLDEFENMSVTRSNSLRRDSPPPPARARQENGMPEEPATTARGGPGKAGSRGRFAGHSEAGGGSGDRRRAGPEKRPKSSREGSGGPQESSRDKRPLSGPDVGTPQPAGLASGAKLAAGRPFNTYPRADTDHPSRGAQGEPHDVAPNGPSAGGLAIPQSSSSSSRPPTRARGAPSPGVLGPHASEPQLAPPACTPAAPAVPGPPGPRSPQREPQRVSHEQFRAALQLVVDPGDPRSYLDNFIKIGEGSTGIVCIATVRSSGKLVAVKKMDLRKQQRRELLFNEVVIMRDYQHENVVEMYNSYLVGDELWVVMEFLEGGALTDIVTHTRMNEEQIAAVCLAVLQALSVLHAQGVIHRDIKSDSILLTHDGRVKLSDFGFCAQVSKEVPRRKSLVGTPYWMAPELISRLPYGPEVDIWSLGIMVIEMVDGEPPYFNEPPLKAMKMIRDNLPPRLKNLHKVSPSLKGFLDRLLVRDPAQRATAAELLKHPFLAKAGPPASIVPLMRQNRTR
Sequence of JNK1α1(h) (P45983 1-384 isoform P45983-2): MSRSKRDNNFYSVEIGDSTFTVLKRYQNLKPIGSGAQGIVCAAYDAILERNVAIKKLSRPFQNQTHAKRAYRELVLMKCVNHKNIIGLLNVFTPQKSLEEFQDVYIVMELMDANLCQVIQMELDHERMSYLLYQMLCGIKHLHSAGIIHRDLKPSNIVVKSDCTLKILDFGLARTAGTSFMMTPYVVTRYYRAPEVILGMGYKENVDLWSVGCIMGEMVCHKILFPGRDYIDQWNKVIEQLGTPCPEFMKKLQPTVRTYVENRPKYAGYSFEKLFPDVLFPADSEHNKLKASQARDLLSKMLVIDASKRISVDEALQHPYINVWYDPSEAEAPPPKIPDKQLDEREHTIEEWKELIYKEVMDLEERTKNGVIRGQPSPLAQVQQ
Sequence of TBK1(h) (Q9UHD2 whole entry): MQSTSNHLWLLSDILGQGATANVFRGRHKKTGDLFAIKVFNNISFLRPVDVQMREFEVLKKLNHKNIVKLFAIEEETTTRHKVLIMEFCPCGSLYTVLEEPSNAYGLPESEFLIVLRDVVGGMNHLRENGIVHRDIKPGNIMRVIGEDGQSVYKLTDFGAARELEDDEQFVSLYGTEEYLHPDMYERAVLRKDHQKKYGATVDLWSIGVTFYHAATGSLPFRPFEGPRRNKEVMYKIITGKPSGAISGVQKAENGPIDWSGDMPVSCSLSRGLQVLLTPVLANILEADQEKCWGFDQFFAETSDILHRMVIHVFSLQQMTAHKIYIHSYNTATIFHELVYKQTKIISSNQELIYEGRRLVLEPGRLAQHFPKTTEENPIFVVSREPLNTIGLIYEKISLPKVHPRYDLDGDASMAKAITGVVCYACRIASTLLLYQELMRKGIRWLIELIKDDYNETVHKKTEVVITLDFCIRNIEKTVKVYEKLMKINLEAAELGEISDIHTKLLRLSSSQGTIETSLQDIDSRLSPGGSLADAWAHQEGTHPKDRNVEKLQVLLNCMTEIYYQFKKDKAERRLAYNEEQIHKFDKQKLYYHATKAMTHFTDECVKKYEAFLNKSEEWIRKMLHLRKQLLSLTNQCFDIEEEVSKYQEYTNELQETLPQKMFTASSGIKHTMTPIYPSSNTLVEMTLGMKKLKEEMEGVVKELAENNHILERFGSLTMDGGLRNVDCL

remaining activity at 2.5 µM [1]	percent residual activity of AMPK(r) [2]	remaining activity at 2.5 µM [3]	remaining activity at 2.5 µM [4]	remaining activity at 2.5 µM [5]	remaining activity at 2.5 µM [6]	SMILES
96%	95%	94%	114%	102%	100%	CC(=O)N1CCN(c2ccc3c(=O)c(C(=O)NCCN4CCCC4)c4n(C)c5ccccc5n4c3n2)CC1 [Compound B-1]
99%	82%	86%	71%	95%	94%	CN1CCCC1CCNC(=O)c1cn2c3c(c(N4CCC(c5cnccn5)C4)c(F)cc3c1=O)Oc1cc3ccccc3cc1-2 (stereo not drawn) [Compound A-1]
